Values quoted from earlier work as cited in publication PMC11089243, “The first selective VAP-1 inhibitor in China, TT-01025-CL: safety, tolerability, pharmacokinetics, and pharmacodynamics of single- and multiple-ascending doses” (Frontiers in Pharmacology, 2024).

Legend:
[1] = parameters: method as in NASH, 2022; conditions: ref NASH, 2022
[2] = test system: monoamine oxidase-B in the brain; parameters: method as in NASH, 2022; conditions: NASH patients; inhibition of monoamine oxidase-B in the brain; ref NASH, 2022

brain penetration (in words) [1]: high brain penetration
finding of phase I study leading to suspension of development [2]: risk of drug interactions
Compound: CC(C)(C)NC(=O)c1ccc(OC/C(=C/F)CN)cc1.Cl [BI 1467335]
